Measurements published in patent US4016042A, “Substrate for the quantitative determination of enzymes” (Pentapharm A.G., priority 1974, dated 1977).
Counter-ions that a name gives are not always drawn. Non-standard residues stand in square brackets, D forms with d. Residues, ends and D or L forms follow the SMILES beside them. *: point of attachment. Cha = N[C@@H](CC1CCCCC1)C(=O)O; pNA = O=[N+]([O-])c1ccc(N*)cc1; Phg = N[C@H](C(=O)O)c1ccccc1; Tos = Cc1ccc(S(=O)(=O)*)cc1; 4Abz = Nc1ccc(C(=O)O)cc1; βNA = c1ccc2cc(N*)ccc2c1; Cbz = O=C(OCc1ccccc1)*; Bz = O=C(c1ccccc1)*; Ahx = NCCCCCC(=O)O

What was measured:
Assay type in all cases: biochemical
plasma kallikrein = plasma kallikrein (Homo sapiens, UniProt P03952); assay: Activity of plasma kallikrein measured with the substrates at constant substrate and enzyme concentrations; conditions: split product
Sequence of plasma kallikrein (P03952 391-638 limits assumed, species assumed): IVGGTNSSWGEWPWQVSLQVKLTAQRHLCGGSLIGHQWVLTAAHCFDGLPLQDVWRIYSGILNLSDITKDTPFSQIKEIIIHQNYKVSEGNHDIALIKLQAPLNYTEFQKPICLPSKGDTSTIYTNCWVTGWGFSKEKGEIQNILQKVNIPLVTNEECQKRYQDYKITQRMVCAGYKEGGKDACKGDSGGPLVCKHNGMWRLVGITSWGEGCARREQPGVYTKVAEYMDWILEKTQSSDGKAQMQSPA
Sequence of plasma kallikrein (P03952 20-390 partner limits assumed, species assumed): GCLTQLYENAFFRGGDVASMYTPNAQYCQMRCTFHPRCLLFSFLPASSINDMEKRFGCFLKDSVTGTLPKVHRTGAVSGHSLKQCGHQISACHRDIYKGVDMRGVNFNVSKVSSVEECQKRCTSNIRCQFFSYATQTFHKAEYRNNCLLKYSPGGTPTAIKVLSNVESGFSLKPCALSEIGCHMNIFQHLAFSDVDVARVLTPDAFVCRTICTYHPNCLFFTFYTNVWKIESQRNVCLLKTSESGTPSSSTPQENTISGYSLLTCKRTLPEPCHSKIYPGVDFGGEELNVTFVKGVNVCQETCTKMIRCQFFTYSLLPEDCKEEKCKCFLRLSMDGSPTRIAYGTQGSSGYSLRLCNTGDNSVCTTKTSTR
Experimental: (§1) HCl, were used for the quantitative determination of various enzymes in blood plasma. The determination was carried out by taking advantage of the fact that the split product NH2 -R^2 formed by enzymatic hydrolysis of the substrate has a UV spectrum which differs from that of the substrate and is shifted toward higher wave lengths. Thus, N^α-Bz-Pro-Phe-Arg-pNA^.
(§2) The degree of the enzymatic hydrolysis of the substrate, which is proportional to the quantity of p-nitroaniline formed, can be easily determined by spectrophotometric measurement at 405 nm. […] The conditions are practically the same for the other substrates carrying a p-nitroanilino group as a chromogenic group. The spectrophotometric measurement was, therefore, carried out in all cases at 405 nm.

plasmin = plasmin (Homo sapiens, UniProt P00747); assay: Activity of human plasmin measured with the substrates at constant substrate and enzyme concentrations; conditions: split product
Sequence of plasmin (P00747 581-810 limits assumed): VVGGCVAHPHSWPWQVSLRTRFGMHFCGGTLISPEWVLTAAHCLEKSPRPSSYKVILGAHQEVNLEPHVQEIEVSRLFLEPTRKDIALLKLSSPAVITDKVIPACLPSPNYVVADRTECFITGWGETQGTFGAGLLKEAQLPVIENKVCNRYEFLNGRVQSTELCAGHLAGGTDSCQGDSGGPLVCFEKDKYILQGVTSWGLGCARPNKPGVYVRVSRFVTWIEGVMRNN
Sequence of plasmin (P00747 97-580 partner limits assumed): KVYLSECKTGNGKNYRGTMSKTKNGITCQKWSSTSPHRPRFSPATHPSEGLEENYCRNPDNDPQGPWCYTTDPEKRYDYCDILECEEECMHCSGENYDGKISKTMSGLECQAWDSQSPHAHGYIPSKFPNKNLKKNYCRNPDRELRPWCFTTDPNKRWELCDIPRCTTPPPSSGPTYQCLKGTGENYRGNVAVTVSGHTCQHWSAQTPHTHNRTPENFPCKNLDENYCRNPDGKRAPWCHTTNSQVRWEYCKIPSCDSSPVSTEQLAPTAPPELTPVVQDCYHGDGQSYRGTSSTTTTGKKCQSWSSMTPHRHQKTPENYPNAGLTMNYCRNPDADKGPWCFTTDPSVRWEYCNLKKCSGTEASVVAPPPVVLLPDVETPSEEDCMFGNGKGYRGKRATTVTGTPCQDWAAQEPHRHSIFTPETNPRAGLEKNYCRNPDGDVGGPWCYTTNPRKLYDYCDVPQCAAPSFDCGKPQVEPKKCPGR
Experimental: as §1, §2

trypsin = molecular target: T1, trypsin (Bos taurus, UniProt P00760); assay: Splitting by trypsin with liberation of pNA
T1 sequence (P00760 24-246): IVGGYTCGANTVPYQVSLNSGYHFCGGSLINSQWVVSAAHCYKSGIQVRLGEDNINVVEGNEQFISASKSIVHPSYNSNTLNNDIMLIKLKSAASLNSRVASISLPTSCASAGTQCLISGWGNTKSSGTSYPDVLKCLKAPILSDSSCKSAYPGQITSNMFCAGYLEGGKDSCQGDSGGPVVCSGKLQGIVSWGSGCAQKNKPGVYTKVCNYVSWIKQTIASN
Experimental: In a 250 ml three-necked flask 16.0 g (47 mmoles) of Cbo-Arg-OH.HCl, dried over P2 O5 in vacuo, were dissolved in 90 ml of absolute HMPTA in a moisture-free atmosphere at 20° C. To the resulting solution there was first added portionwise a solution of 4.74 g (47 mmoles) of Et3 N in 10 ml of HMPTA and then 16.4 g (100 mmoles) of p-nitrophenylisocyanate (100% excess) at room temperature. The reaction mixture was kept at room temperature for 24 hours, whereupon most of the HMPTA was distilled off in vacuo. The residue was extracted several times with 30% AcOH. The residue was discarded. The combined AcOH extracts were further purified by gel filtration on a "Sephadex G-15" column as described in Example 1, paragraph I (e). […] Elementary analysis and calculation from the empirical formula C20 H25 N6 O5 Cl gave the following values: C = 51.29% (51.67%); H = 5.48% (5.42%); N = 17.92% (18.08%); Cl = 7.50% (7.63%).

| Molecule | Quantity of p-nitroaniline (pNA), β-naphthylamine (2-NA) or 4-methoxy-β-naphthylamine (4-MeO-2-NA) released within 1 minute by 1 BAEE unit of plasma kallikrein (plasma kallikrein) [nm] | Quantity of p-nitroaniline (pNA), β-naphthylamine (2-NA) or 4-methoxy-β-naphthylamine (4-MeO-2-NA) released within 1 minute by one C unit of human plasmin (plasmin) [nm] | splitting by trypsin (trypsin) |
| --- | --- | --- | --- |
| N=C(N)NCCC[C@H](NC(=O)[C@H](Cc1ccccc1)NC(=O)[C@@H]1CCCN1)C(=O)Nc1ccc([N+](=O)[O-])cc1 [Substrate II, H-Pro-Phe-Arg-pNA.2HCl] (H-Pro-Phe-Arg-pNA) | 28.6 | 16.2 | – |
| CC(=O)N1CCC[C@H]1C(=O)N[C@@H](Cc1ccccc1)C(=O)N[C@@H](CCCNC(=N)N)C(=O)Nc1ccc([N+](=O)[O-])cc1 [Substrate III, N^α -Ac-Pro-Phe-Arg-pNA.HCl] (Ac-Pro-Phe-Arg-pNA) | 42.3 | 49.1 | – |
| N=C(N)NCCC[C@H](NC(=O)[C@H](Cc1ccccc1)NC(=O)[C@@H]1CCCN1C(=O)C1CCCCC1)C(=O)Nc1ccc([N+](=O)[O-])cc1 [Substrate V, N^α -cyclohexylcarbonyl-Pro-Phe-Arg-pNA.HCl] | 154.7 | 158.0 | – |
| Cc1ccc(C(=O)N2CCC[C@H]2C(=O)N[C@@H](Cc2ccccc2)C(=O)N[C@@H](CCCNC(=N)N)C(=O)Nc2ccc([N+](=O)[O-])cc2)cc1 [Substrate VI, N^α -4-Methyl-Bz-Pro-Phe-Arg-pNA.HCl] | 78.4 | 142.0 | – |
| N=C(N)NCCC[C@H](NC(=O)[C@H](Cc1ccccc1)NC(=O)[C@@H]1CCCN1C(=O)CCCCCN)C(=O)Nc1ccc([N+](=O)[O-])cc1 [Substrate VIII, N^α -(ω-Aminocaproyl)-Pro-Phe-Arg-pNA.2HCl] (H-[Ahx]PFR-pNA) | 59.7 | 256.0 | – |
| Cc1ccc(S(=O)(=O)N2CCC[C@H]2C(=O)N[C@@H](Cc2ccccc2)C(=O)N[C@@H](CCCNC(=N)N)C(=O)Nc2ccc([N+](=O)[O-])cc2)cc1 [Substrate X, N^α-Tos-Pro-Phe-Arg-pNA.HCl] (Tos-Pro-Phe-Arg-pNA) | 88.5 | 80.2 | – |
| N=C(N)NCCC[C@H](NC(=O)[C@H](Cc1ccccc1)NC(=O)[C@@H]1CCCN1C(=O)Cc1ccc(N)cc1)C(=O)Nc1ccc([N+](=O)[O-])cc1 [Substrate XI, N^α-4-Aminophenyl-acetyl-Pro-Phe-Arg-pNA. 2HCl] | 72.1 | 230.0 | – |
| N=C(N)NCCC[C@H](NC(=O)[C@H](Cc1ccccc1)NC(=O)[C@@H]1CCCN1C(=O)c1ccc(N)cc1)C(=O)Nc1ccc([N+](=O)[O-])cc1 [Substrate XII, N^α-4-Aminobenzoyl-Pro-Phe-Arg-pNA. 2HCl] (H-[4Abz]PFR-pNA) | 49.2 | 196.0 | – |
| N=C(N)NCCC[C@H](NC(=O)[C@H](Cc1ccccc1)NC(=O)[C@@H]1CCCN1C(=O)OCc1ccccc1)C(=O)Nc1ccc([N+](=O)[O-])cc1 [Substrate XIII, N^α-Cbo-Pro-Phe-Arg-pNA.HCl] (Cbz-Pro-Phe-Arg-pNA) | 109.9 | 176.1 | – |
| N=C(N)NCCC[C@H](NC(=O)[C@H](CC1CCCCC1)NC(=O)[C@@H]1CCCN1C(=O)c1ccccc1)C(=O)Nc1ccc([N+](=O)[O-])cc1 [Substrate XIV, N^α-Bz-Pro-CHA-Arg-pNA.HCl] (Bz-Pro-[Cha]-Arg-pNA) | 64.5 | 116.0 | – |
| N=C(N)NCCC[C@H](NC(=O)[C@H](Cc1ccc(O)cc1)NC(=O)[C@@H]1CCCN1C(=O)c1ccccc1)C(=O)Nc1ccc([N+](=O)[O-])cc1 [Substrate XV, N^α-Bz-Pro-Tyr-Arg-pNA.HCl] (Bz-Pro-Tyr-Arg-pNA) | 71.0 | 73.8 | – |
| N=C(N)NCCC[C@H](NC(=O)[C@@H](NC(=O)[C@@H]1CCCN1C(=O)c1ccccc1)c1ccccc1)C(=O)Nc1ccc([N+](=O)[O-])cc1 [Substrate XVI, N^α-Bz-Pro-Ph.Gly-Arg-pNA.HCl] (Bz-Pro-[Phg]-Arg-pNA) | 9.1 | 16.2 | – |
| N=C(N)NCCC[C@H](NC(=O)[C@H](Cc1ccccc1)NC(=O)[C@@H]1CCCN1C(=O)c1ccccc1)C(=O)Nc1ccc2ccccc2c1 [Substrate XVII, N^α-Bz-Pro-Phe-Arg-2-NA^. HCl] (Bz-Pro-Phe-Arg-βNA) | 44.1 | 95.4 | – |
| COc1cc(NC(=O)[C@H](CCCNC(=N)N)NC(=O)[C@H](Cc2ccccc2)NC(=O)[C@@H]2CCCN2C(=O)c2ccccc2)cc2ccccc12 [Substrate XVIII, N^α-Bz-Pro-Phe-Arg-4-MeO-2-NA^. HCl] | 39.8 | 79.7 | – |
| N=C(N)NCCC[C@H](NC(=O)OCc1ccccc1)C(=O)Nc1ccc([N+](=O)[O-])cc1 [XIIIa, Cbo-Arg-pNA.HCl] | – | – | split by trypsin with liberation of pNA |
| N^α -4-Aminomethyl-cyclohexylcarbonyl-Pro-Phe-Arg-pNA.2HCl [Substrate IX] | 65.1 | 600.0 | – |
| N^α -Caproyl-Pro-Phe-Arg-pNA.HCl [Substrate IV] | 108.3 | 100.0 | – |
